Patent publication US11464953B2, “Water-soluble microneedle spicules and non-aqueous cosmetic composition containing the same” (PAEAN AESTHETICS INC., priority 2015, dated 2022)

Experiment: HPLC stability test of vitamin C in non-aqueous cosmetics
Type: physicochemical
Details: maintained for 24 months
Experimental: To confirm the stability of vitamin C (ascorbic acid) contained in non-aqueous cosmetics, the content of the reduced form of ascorbic acid was measured by HPLC for 24 months. The non-aqueous cosmetics in an amount of 0.1 g was collected and distilled water was added to a final volume of 1 mL, and vehemently mixed. Then, the water-soluble ascorbic acid was eluted and the aqueous solution containing ascorbic acid was diluted and used for analysis. The column used was the C18 (4.6×150 mm) and 0.025 M phosphoric acid (pH 2.5) was used for the mobile phase. After adding 10 mM DTT to a 100-fold diluted sample for analysis, the amounts of the reduced form in the sample in which ascorbic acid was all converted to a reduced form and the sample in which 10 mM DTT was not added were compared and thereby the amounts of the ascorbic acid in the reduced form contained in the cosmetics were confirmed. The samples were prepared for 0, 3, 6, 9, 12, 18, and 24 months and analyzed by HPLC. […] The amounts of ascorbic acid in the reduced form was calculated as follows. [table]

content of ascorbic acid in the reduced form (Initial AA/Total AA × 100): ≥ 96%
Structure (SMILES): O=C1O[C@H]([C@@H](O)CO)C(O)=C1O [ascorbic acid]
